We go through four compounds from patent publication US10231980B2, “Cortexolone 17alpha-benzoate for use in the treatment of tumours” (COSMO TECHNOLOGIES LTD., priority 2014, dated 2019).

For data set [1], the system named is HT29. The data set is described as follows: MTT colorimetric assay on epithelial intestinal cancer cells. It is filed as cell-based. The note with it: human, 72 h. Here is the method: The experiment was performed to test and define anticancer activity in vitro of Cortexolone 17α-benzoate and cortexolone 17α-valerate, 21-propionate on cell lines representatives of epithelial intestinal tumours, namely HT29. The experiment method consisted in: • 1. Monolayer HT-29 cells were plated in: 96-wells plates at the density of 2×10^4 cells/mL. The cells plated were kept at 37° C. in 5% CO2 and left to attach for 24 h. • 2. […] After 72 h of treatment, the MTT colorimetric assay was performed.
(In general: Tetrazolium assays rely on reduction of a dye to a coloured formazan, in cell work by metabolically active cells.)

Data set [2] relates to LNCaP. The data set is described as follows: ATP-dependent cell viability assay (Cell Titer Glo), Example 12. As to conditions: for IC50: Homo sapiens. From the text: (§1) Data shown in Table I were fitted through sigmoidal dose response curves and analyzed using Prizm statistical.
In general terms: ATP-based viability assays read luminescence as a measure of living cells.

Data set [3] relates to MiaPaca2. Described as above. As to conditions: for IC50: Homo sapiens.
Source text: as §1

The test system of data set [4] is PC3. The data set is described as above. As to conditions: for IC50: Homo sapiens.
Source text: as §1

Data set [5] has as its system Panc1. Described as above. As to conditions: for IC50: Homo sapiens.
Source text: as §1

The test system of data set [6] is MCF7. The data set is described as follows: In vitro proliferation / cytotoxic assay on breast cancer cells (Examples 14, 25). Here is the method: as §1
For the cytotoxic assay, cells were seeded in 96-well flat bottom culture plates in media containing charcoal stripped serum. After 24 hours, test compounds were added to the cells. DMSO was used as the vehicle negative control and RU486 as the positive control. After 72 hour incubation, cells were harvested and lysed to determine cell viability using the Cell Titer Glow assay.

In data set [7] the test system is 7 cancer cell lines. Briefly: Therapeutic index over a panel of cancer cell lines. The note with it: average over the cancer cell lines of Table VII. It is filed as cell-based. Here is the method: (§2) The compound toxicity was determined as follow:
(§3) Therapeutic Index=Safety/Potency=IC50 stimulated PBMC/IC50 cancer cell

Data set [8] concerns stimulated PBMC. Briefly: IC50 on stimulated (actively dividing) PBMC. It is filed as cell-based, human. The note with it: PBMC Stim; Table IV.
In data set [9] the test system is stimulated PBMC. The data set is described as follows: IC50 on stimulated (actively dividing) PBMC. As to conditions: Homo sapiens, PBMC, PBMC STIMULATED; Table IV; read-out: In vitro proliferation IC50. Type of data set: cell-based, human. The method, then:
as §2, §3

In data set [10] the test system is MiaPaca2 (AR low). Briefly: ATP-dependent proliferation assay with 10 nM DHT, pancreatic cancer cells (Examples 3, 4, 7). As to conditions: for TI on Resting PBMC: IC50 resting PBMC / IC50 MiaPaca2; for TI on Stimulated PBMC: IC50 stimulated PBMC / IC50 MiaPaca2. Here is the method: (§4) The experimental method consisted of: • 1. […] After 24 hrs, 10 nM DHT (dihydrotestosterone) with or without anti-androgen compounds, or DMSO vehicle (negative control) was added to the cultures. • 3.
(§5) Data from Experiment 1 were fitted through sigmoidal dose response curves and analyzed using Prizm statistical analysis software. […] The results from 2 sets of experiments follow.
(§6) Data from Experiment 1 was fitted through sigmoidal dose response curves and analyzed using Prizm statistical analysis software.

For data set [11], the system named is Panc1 (AR+). The data set is described as above. As to conditions: for TI on Resting PBMC: IC50 resting PBMC / IC50 Panc1; for TI on Stimulated PBMC: IC50 stimulated PBMC / IC50 Panc1. The method, then:
as §4, §5, §6

Data set [12] deals with MiaPaca-2 pancreatic tumor xenograft. Briefly: Human pancreatic tumor xenograft in nude mice. Type of data set: in vivo. The method, then:
Cortexolone 17α-benzoate and Cyproterone Acetate were separately diluted in DMSO/2-hydroxypropyl β-cyclodextrin (vehicle).
The test was carried out comparing the anti-tumor activity of cortexolone 17α-benzoate at two different dosages (8.0 mg/kg, corresponding approximately at 230 μM, and 40 mg/kg, corresponding approximately at 1150 μM), versus the vehicle (i.e. 0.4% (v/v) tween 80 and 0.5% (w/v) carboxymethylcellulose in normal saline) and versus the comparator Cyproterone Acetate at two different dosages (7.4 mg/kg and 37 mg/kg).
1×10^6 MiaPaca-2 cells suspended in matrigel were sub-cutaneously injected into 6 week old athymic nude mice.
The treatment with the tested compounds, with the vehicle and with the comparative compound, was initiated after the tumor volume has reached 50 mm^3 after transplantation. All compounds were injected 100 μL/mouse of low dose solution (approximately 230 μM) or 100 μL/mouse of high dose solution (approximately 1150 μM) of cortexolone 17α-benzoate, vehicle and Cyproterone Acetate, respectively. Compounds and controls were administered subcutaneously daily for 28 days.
Tumors were measured every 4 days with a digital caliper.
The results are plotted in FIG. 1 as average change in tumor volume relative to the start of treatment. Tumor volume was calculated according to the formula 0.5236(r1)^2(r2) where r1<r2.
Error bars are the SEM for 7 to 10 mice per treatment group. P values were calculated according to the Student's t test.
Cortexolone 17α-valerate-21-propionate and Cyproterone Acetate were separately diluted in DMSO/2-hydroxypropyl β-cyclodextrin (vehicle).
The test was carried out comparing the anti-tumor activity of cortexolone 17α-valerate-21-propionate at two different dosages (approximately 8.6 mg/kg and 43 mg/kg) versus the vehicle (i.e. 0.4% (v/v) tween 80 and 0.5% (w/v) carboxymethylcellulose in normal saline) and versus the comparator Cyproterone Acetate at two different dosages (7.4 mg/kg and 37 mg/kg).
1×10^6 MiaPaca-2 cells suspended in matrigel were subcutaneously injected into 6 week old athymic nude mice.
The treatment with the tested compound, with the vehicle and with the comparative compound was initiated after the tumor has reached a volume of 50 mm^3 after implantation, injecting subcutaneously 100 μL/mouse of low dose solution (approximately 230 μM) or 100 μL/mouse of high dose solution (approximately 1150 μM) of cortexolone 17α-valerate-21-propionate, vehicle and Cyproterone Acetate, respectively. Compounds and controls were administered subcutaneously daily for 28 days. Tumors were measured every 4 days with a digital caliper.
The results are plotted in FIG. 2 as average change in tumor volume relative to the start of treatment. Tumor volume was calculated according to the formula 0.5236(r1)^2(r2) where r1<r2.
Cyproterone acetate (CPA), a well-known anti-androgen, was used as control. Briefly 1×10^6 MiaPaca2 cells suspended in matrigel were subcutaneously (sc) injected into 6 week old male athymic nude mice. Tumors were measured every 4 days with a digital caliper. Tumor volume was calculated according to the formula: 0.5236(r1)2(r2) where r1<r2. Treatment with CB-03-06 and control compounds were initiated after the tumor had reached 50 mm^3. Compounds diluted in DMSO/2-hydroxypropyl b-cyclodextrin (vehicle) were subcutaneously injected daily (100 microL/mouse) at the concentration of 40 mg/Kg daily for 28 consecutive days.

The mark [13] stands for this setting: LNCaP, read-out: In vitro proliferation IC50.
Where [14] appears, read: PC-3, 72 h, PC3, Tables I and II, titrated 3 uM to 200 uM, 3 days.
Where [15] appears, read: PC-3, read-out: In vitro proliferation IC50, PC3, Table IV.
The mark [16] stands for this setting: Experiment 1, 0 = higher toxicity in PBMC.

The structures appear in SMILES notation. Like-named read-outs stand apart in the source and are kept apart here.

Consider `CCCC(=O)OC1(C(=O)CO)CCC2C3CCC4=CC(=O)CC[C@]4(C)C3=CC[C@@]21C` (single isomer, unassigned) [CB-03-04], for which the “Therapeutic Index = IC50 resting PBMC/IC50 cancer cell” value in data set [1] stood at 7; in data set [2] (human, 3 days) it was 8; in data set [3] (human, 3 days), 2; in data set [4] (human, 3 days), 3; in data set [5] (human, 3 days) it was 1; in data set [6] (human, 3 days) it was 4. Also, in data set [8], the “Therapeutic Index = IC50 resting PBMC/IC50 cancer cell” value was determined as 1. The “Therapeutic Index = IC50 stimulated PBMC/IC50 cancer cell” value in data set [1] amounted to 7; in data set [2] (human, 3 days), 8; in data set [3] (human, 3 days) it was 2; in [4] (human, 3 days) it was 3; in [5] (human, 3 days), 1; in data set [6] (human, 3 days) it was 4. The IC50 in data set [2] (LNCaP, 72 h) was determined as 46 µM; in data set [2] (setting [13]), 46 µM; in data set [4] (setting [14]) it was 135 µM; in data set [4] (setting [15]), 140 µM. Moreover, the “Therapeutic Index = IC50 stimulated PBMC/IC50 cancer cell, AVERAGE” value in data set [7] worked out at 4.
Turning to `CCC(=O)O[C@]1(C(=O)CO)CC[C@H]2[C@@H]3CCC4=CC(=O)CC[C@]4(C)[C@H]3CC[C@@]21C` [CB-03-01, cortexolone 17α-propionate], the IC50 in data set [2] (LNCaP, 72 h) amounted to 33 µM; in [2] (setting [13]), 33 µM; in [4] (setting [14]), 190 µM; in [4] (setting [15]), 190 µM. In addition, the “Therapeutic Index = IC50 resting PBMC/IC50 cancer cell” value in [2] (human, 3 days) was determined as 0; in data set [3] (human, 3 days), 0; in [4] (human, 3 days), 0; in data set [5] (human, 3 days) it was 0; in [6] (human, 3 days) it was 0; in data set [8], 1. Besides, the “Therapeutic Index = IC50 stimulated PBMC/IC50 cancer cell” value in [2] (human, 3 days) is on record as 0; in [3] (human, 3 days), 0; in data set [4] (human, 3 days), 0; in [5] (human, 3 days) it was 0; in data set [6] (human, 3 days), 0. For the same compound, in [7], the “Therapeutic Index = IC50 stimulated PBMC/IC50 cancer cell, AVERAGE” value amounted to 0.
Regarding `CCCC(=O)OCC(=O)[C@@]1(OC(=O)CCC)CCC2C3CCC4=CC(=O)CC[C@]4(C)C3CC[C@@]21C` (stereo partly drawn) [CB-03-03], the IC50 in data set [9] turned out to be 140 µM; in data set [2] (LNCaP, 72 h), 16 µM; in [2] (setting [13]), 16 µM; in data set [3] (MIA PaCa-2, 72 h), 30 µM; in data set [3] (MIA PaCa-2, read-out: In vitro proliferation IC50), 30 µM; in [4] (setting [14]) it was 53 µM. Moreover, the IC50 was found to be 53 µM in data set [4] (setting [15]); 70 µM in data set [5] (PANC-1, 72 h); 70 µM in data set [5] (PANC-1, read-out: In vitro proliferation IC50); 32 µM in [6] (Homo sapiens, MCF7, read-out: In vitro proliferation IC50). Also, the “Therapeutic Index = IC50 resting PBMC/IC50 cancer cell” value in data set [2] (human, 3 days) came out at 9; in [3] (human, 3 days) it was 5; in data set [4] (human, 3 days) it was 3; in [5] (human, 3 days) it was 2; in data set [6] (human, 3 days), 4; in [8] it was 1. Besides, the “Therapeutic Index = IC50 stimulated PBMC/IC50 cancer cell” value in data set [2] (human, 3 days) came to 9; in data set [3] (human, 3 days) it was 5; in [4] (human, 3 days), 3; in data set [5] (human, 3 days), 2; in data set [6] (human, 3 days) it was 4. Further, the “Therapeutic Index = IC50 stimulated PBMC/IC50 cancer cell, AVERAGE” value in [7] is reported as 4.
Take `CC(=O)O[C@]1(C(C)=O)CC[C@H]2[C@@H]3C=C(Cl)C4=CC(=O)[C@@H]5C[C@@H]5[C@]4(C)[C@H]3CC[C@@]21C` [Cyproterone Acetate, reference compound]: the “TI on Resting PBMC” value in data set [10] (setting [16]) was determined as 0; in [10] (Experiment 2) it was 1; in data set [11] (setting [16]) it was 0; in data set [11] (Experiment 2), 4. For the same compound, the “TI on Stimulated PBMC” value in [10] (setting [16]) came out at 2; in data set [10] (Experiment 2), 2; in [11] (setting [16]), 1; in data set [11] (Experiment 2) it was 1. Moreover, the IC50 in data set [2] (LNCaP, 72 h) was found to be 22 µM; in data set [2] (setting [13]) it was 22 µM; in data set [4] (setting [14]), 90 µM; in data set [4] (setting [15]), 90 µM. Besides, the “Therapeutic Index = IC50 resting PBMC/IC50 cancer cell” value is recorded as 3 in data set [2] (LNCaP, Table IV); 2 in [3] (MiaPaca2, Table IV); 1 in data set [4] (PC3, Table IV); 1 in [5] (Panc1, Table IV); 1 in data set [6] (MCF7, Table IV); 1 in data set [8]. Further, the “Therapeutic Index = IC50 stimulated PBMC/IC50 cancer cell” value in [2] (LNCaP, Table VII) stood at 3; in data set [3] (MiaPaca2, Table VII) it was 2; in data set [4] (PC3, Table VII), 1; in data set [5] (Panc1, Table VII), 1; in data set [6] (MCF7, Table VII), 1. Also, the “pancreatic tumor size relative to the size when treatment was initiated” value in data set [12] (Example 5, MiaPaca-2 xenograft, nude mice, SC daily 28 days, high dose of cortexolone 17α-benzoate (40 mg/kg)) was found to be 12 fold. Further, the “pancreatic tumor size relative to the initial tumor size” value in data set [12] (Example 6, MiaPaca-2 xenograft, nude mice, SC daily 28 days, for the time of treatment) is ≥ 12 fold. Besides, the “pancreatic tumor size relative to the initial size” value in [12] (Example 22, MiaPaca2 xenograft, male nude mice, 40 mg/Kg SC daily 28 days, treatment period) was determined as 12 fold. Besides, in data set [12] (Example 22, MiaPaca2 xenograft, 40 mg/Kg SC daily 28 days), the Median survival is recorded as 40 days. For the same compound, in data set [7], the “Therapeutic Index = IC50 stimulated PBMC/IC50 cancer cell, AVERAGE” value is listed as 1.
